From US9273057B2 (Bristol-Myers Squibb Company, priority 2012, dated 2016)
Structures can show the parent of a compound that is named as a salt.

Molecular target: CK2A1 (CK2α/β) (Homo sapiens, UniProt P68400)
Experiment: CK2 kinase assay, CK2A1 (CK2α/β)
Format: biochemical
Settings: Table A; read-out: CK2A1 (CK2α/β) (IC50)

Sequence of CK2A1 (CK2α/β) (P68400 whole entry, species assumed): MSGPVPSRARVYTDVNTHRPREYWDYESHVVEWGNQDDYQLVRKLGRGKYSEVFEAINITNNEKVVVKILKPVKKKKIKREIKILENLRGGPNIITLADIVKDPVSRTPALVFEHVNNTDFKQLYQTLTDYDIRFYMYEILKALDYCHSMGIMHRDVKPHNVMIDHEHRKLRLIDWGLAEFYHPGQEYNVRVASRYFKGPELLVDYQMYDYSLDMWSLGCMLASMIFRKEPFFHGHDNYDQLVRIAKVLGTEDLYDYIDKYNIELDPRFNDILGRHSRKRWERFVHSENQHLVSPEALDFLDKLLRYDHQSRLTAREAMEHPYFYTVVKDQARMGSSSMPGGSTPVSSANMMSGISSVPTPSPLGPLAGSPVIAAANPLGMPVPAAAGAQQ
Sequence of CK2A1 (CK2α/β) (P67870 whole entry partner, species assumed): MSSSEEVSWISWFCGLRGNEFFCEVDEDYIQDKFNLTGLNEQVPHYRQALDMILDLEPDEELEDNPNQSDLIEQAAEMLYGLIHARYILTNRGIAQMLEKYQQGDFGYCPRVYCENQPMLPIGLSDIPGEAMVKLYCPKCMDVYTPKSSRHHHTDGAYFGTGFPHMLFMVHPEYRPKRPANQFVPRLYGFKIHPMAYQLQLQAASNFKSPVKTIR

Row | SMILES | IC50 [nM]
1 | CCNc1nc(Nc2cc(C#N)cc(N3C[C@@H](C)[C@@H](NC(=O)OC)C3)c2Cl)nn2c(C#N)cnc12 [Example 335, methyl ((3R,4R)-1-(2-chloro-5-cyano-3-((7-cyano-4-(ethylamino)imidazo[2,1-f][1,2,4]triazin-2-yl)amino)phenyl)-4-methyl-3-pyrrolidinyl)carbamate] | 3.97
2 | CCNc1nc(Nc2cc(C#N)cc(N3CC[C@@H](NC(=O)OC)[C@H](OC(=O)[C@@H](N)[C@@H](C)O)C3)c2Cl)nn2c(C#N)cnc12 [Example 810, (2S,3R)-(3R,4R)-1-(2-chloro-5-cyano-3-((7-cyano-4-(ethylamino)imidazo[2,1-f][1,2,4]triazin-2-yl)amino)phenyl)-4-((methoxycarbonyl)amino)piperidin-3-yl 2-amino-3-hydroxybutanoate hydrochloride] | 3.82
3 | N#Cc1cc(Nc2nc(NC3CC3)c3ncc(C#N)n3n2)c(Cl)c(C2(O)CCNC2)c1 (stereo not drawn) [Example 651, 2-((2-chloro-5-cyano-3-(3-hydroxypyrrolidin-3-yl)phenyl)amino)-4-(cyclopropylamino)imidazo[2,1-f][1,2,4]triazine-7-carbonitrile] | 1.51
4 | CN1CC(N2CCN(c3cc(C#N)cc(Nc4nc(NC5CC5)c5ncc(C#N)n5n4)c3Cl)CC2)C1 [Example 72, 2-((2-chloro-5-cyano-3-(4-(1-methyl-3-azetidinyl)-1-piperazinyl)phenyl)amino)-4-(cyclopropylamino) imidazo[2,1-f][1,2,4] triazine-7-carbonitrile] | 0.79
5 | CCNc1nc(Nc2cc(C#N)cc(N3CC[C@@H]4[C@@H](C3)OC(=O)N4C3COC3)c2Cl)nn2c(C#N)cnc12 [Example 839, 2-((2-chloro-5-cyano-3-((3aR,7aR)-1-(oxetan-3-yl)-2-oxohexahydrooxazolo[5,4-c]pyridin-5(2H)-yl)phenyl)amino)-4-(ethylamino)imidazo[2,1-f][1,2,4]triazine-7-carbonitrile] | 1.19
6 | N#Cc1cc(Nc2nc(NC3CC3)c3ncc(C#N)n3n2)c(Cl)c(N2CCN(C(=O)CN3CCOCC3)CC2)c1 [Example 100, 2-((2-chloro-5-cyano-3-(4-(4-morpholinylacetyl)-1-piperazinyl)phenyl)amino)-4-(cyclopropylamino) imidazo[2,1-f][1,2,4] triazine-7-carbonitrile] | 0.55
7 | CCNc1nc(Nc2cc(C#N)cc(N3CCC4(CCN(C(C)=O)C4)CC3)c2Cl)nn2c(C#N)cnc12 [Example 787, 2-((3-(2-acetyl-2,8-diazaspiro[4.5]decan-8-yl)-2-chloro-5-cyanophenyl)amino)-4-(ethylamino)imidazo[2,1-f][1,2,4]triazine-7-carbonitrile] | 1.66
8 | CN1CCC(N2CCN(c3cc(C#N)cc(Nc4nc(NC5CC5)c5ncc(C#N)n5n4)c3Cl)CC2)CC1 [Example 15, 2-((2-chloro-5-cyano-3-(4-(1-methyl-4-piperidinyl)-1-piperazinyl)phenyl)amino)-4-(cyclopropylamino)imidazo [2,1-f][1,2,4]triazine-7-carbonitrile] | 1.98
9 | C[C@H](O)CN1CCC(c2cc(C#N)cc(Nc3nc(NC4CC4)c4ncc(C#N)n4n3)c2Cl)CC1 [Example 216, (S)-2-(2-chloro-5-cyano-3-(1-(2-hydroxypropyl)piperidin-4-yl)phenylamino)-4-(cyclopropylamino)imidazo[1,2-f][1,2,4]triazine-7-carbonitrile] | 1.02
10 | CO[C@@H]1CN(c2cc(C#N)cc(Nc3nc(NC4CC4)c4ncc(C#N)n4n3)c2Cl)CC1NC1COC1 (stereo in doubt) [Example 302, 2-((2-chloro-5-cyano-3-((3R,4S)-3-methoxy-4-(oxetan-3-ylamino)pyrrolidin-1-yl)phenyl)amino)-4-(cyclopropylamino)imidazo[2,1-f][1,2,4]triazine-7-carbonitrile, HCl] | 1.7
11 | CC(C)(O)C1CCN(CCCc2cc(Cl)c(Nc3nc(NC4CC4)c4ncc(C#N)n4n3)cc2C#N)CC1 [Example 568, 2-((2-chloro-5-cyano-4-(3-(4-(2-hydroxypropan-2-yl)piperidin-1-yl)propyl)phenyl)amino)-4-(cyclopropylamino)imidazo[2,1-f][1,2,4]triazine-7-carbonitrile] | 1.97
12 | N#Cc1cc(Nc2nc(NC3CC3)c3ncc(C#N)n3n2)c(Cl)c(N2CCN(C3CC3)CC2)c1 [Example 593, 2-{[2-chloro-5-cyano-3-(4-cyclopropylpiperazin-1-yl)phenyl]amino}-4-(cyclopropylamino)imidazo [2,1-f][1,2,4]triazine-7-carbonitrile] | 1.35
13 | CCNc1nc(Nc2ccc3c(c2)c(C#N)cn3C2CCN([C@H]3CS(=O)(=O)C[C@H]3O)CC2)nn2c(C#N)cnc12 [Example 829, 2-((3-cyano-1-(1-((3R,4S)-4-hydroxy-1,1-dioxidotetrahydrothiophen-3-yl)piperidin-4-yl)-1H-indol-5-yl)amino)-4-(ethylamino)imidazo[2,1-f][1,2,4]triazine-7-carbonitrile] | 0.72
14 | COC[C@H](NC[C@H]1CN(c2cc(C#N)cc(Nc3nc(NC4CC4)c4ncc(C#N)n4n3)c2Cl)CCN1C)C1CC1 [Example 706, 2-({2-chloro-5-cyano-3-[(3S)-3-({[(1R)-1-cyclopropyl-2-methoxyethyl]amino}methyl)-4-methylpiperazin-1-yl]phenyl}amino)-4-(cyclopropylamino)imidazo[2,1-f][1,2,4]triazine-7-carbonitrile] | 1.76
15 | N#Cc1cc(Nc2nc(NC3CC3)c3ncc(C#N)n3n2)c(Cl)c(N2CCC3C(CCN3[C@H]3COC[C@@H]3O)C2)c1 (mixture of isomers) [Example 451, (+/−)-2-((2-chloro-5-cyano-3-(1-((3S,4R)-4-hydroxytetrahydrofuran-3-yl)hexahydro-1H-pyrrolo[3,2-c]pyridin-5(6H)-yl)phenyl)amino)-4-(cyclopropylamino)imidazo[2,1-f][1,2,4]triazine-7-carbonitrile] | 5.52
16 | COC(=O)N1CC(N2CCN(c3cc(C#N)cc(Nc4nc(NC5CC5)c5ncc(C#N)n5n4)c3Cl)CC2)C1 [Example 53, methyl 3-(4-(2-chloro-5-cyano-3-((7-cyano-4-(cyclopropylamino)imidazo[2,1-f][1,2,4]triazin-2-yl)amino)phenyl)-1-piperazinyl)-1-azetidinecarboxylate] | 2.69
17 | CC(C)(CO)C(=O)N1CC(N2CCN(c3cc(C#N)cc(Nc4nc(NC5CC5)c5ncc(C#N)n5n4)c3Cl)CC2)C1 [Example 494, 2-[(2-chloro-5-cyano-3-{4-[1-(3-hydroxy-2,2-dimethylpropanoyl)azetidin-3-yl]piperazin-1-yl}phenyl)amino]-4-(cyclopropylamino)imidazo[2,1-f][1,2,4]triazine-7-carbonitrile] | 1.99
18 | N#Cc1cc(CN2CCS(=O)(=O)CC2)c(Cl)c(Nc2nc(NC3CC3)c3ncc(C#N)n3n2)c1 [Example 671, 2-((2-chloro-5-cyano-3-((1,1-dioxidothiomorpholino)methyl)phenyl)amino)-4-(cyclopropylamino)imidazo[2,1-f][1,2,4]triazine-7-carbonitrile] | 1.71
19 | COC(=O)N[C@@H]1CCCN(c2cc(C#N)cc(Nc3nc(NC4CC4)c4ncc(C#N)n4n3)c2Cl)C1 [Example 41, methyl ((3R)-1-(2-chloro-5-cyano-3-((7-cyano-4-(cyclopropylamino)imidazo [2,1-f][1,2,4]triazin-2-yl)amino)phenyl)-3-piperidinyl)carbamate] | 0.94
20 | COC1CN(CCCCc2cc(Cl)c(Nc3nc(NC4CC4)c4ncc(C#N)n4n3)cc2C#N)C1 [Example 571, 2-((2-chloro-5-cyano-4-(4-(3-methoxyazetidin-1-yl)butyl)phenyl)amino)-4-(cyclopropylamino)imidazo[2,1-f][1,2,4]triazine-7-carbonitrile] | 3.95
21 | N#Cc1cc(Nc2nc(NC3CC3)c3ncc(C#N)n3n2)c(Cl)c([C@H]2CCC[C@H](NC[C@H]3CCCO3)C2)c1 [Example 728, 2-({2-chloro-5-cyano-3-[(1S,3S)-3-{[(2R)-oxolan-2-ylmethyl]amino}cyclohexyl]phenyl}amino)-4-(cyclopropylamino)imidazo [2,1-f][1,2,4]triazine-7-carbonitrile] | 1.38
22 | CN(C)CC(=O)Nc1cc(C#N)cc(Nc2nc(NC3CC3)c3ncc(C#N)n3n2)c1Cl [Example 620, N-(2-chloro-5-cyano-3-((7-cyano-4-(cyclopropylamino)imidazo[2,1-f][1,2,4]triazin-2-yl)amino)phenyl)-2-(dimethylamino)acetamide] | 1.77
23 | N#Cc1cnc2c(NC3CC3)nc(Nc3cc(OC(F)F)cc(N4CCOCC4)c3Cl)nn12 [Example 406, 2-(2-chloro-5-(difluoromethoxy)-3-morpholinophenylamino)-4-(cyclopropylamino)imidazo[1,2-f][1,2,4]triazine-7-carbonitrile] | 2.12
24 | CCNc1nc(Nc2cc(C#N)cc(N3CCN(CC4(C)COC4)CC3)c2Cl)nn2c(C#N)cnc12 [Example 603, 2-[(2-chloro-5-cyano-3-{4-[(3-methyloxetan-3-yl)methyl]piperazin-1-yl}phenyl)amino]-4-(ethylamino)imidazo[2,1-f] [1,2,4]triazine-7-carbonitrile] | 2.85
25 | N#CCC1(N2CCC(c3cc(C#N)cc(Nc4nc(NC5CC5)c5ncc(C#N)n5n4)c3Cl)CC2)COC1 [Example 378, 2-((2-chloro-5-cyano-3-(1-(3-(cyanomethyl)oxetan-3-yl)piperidin-4-yl)phenyl)amino)-4-(cyclopropylamino)imidazo[2,1-f][1,2,4]triazine-7-carbonitrile] | 0.81
26 | CC(C)OC(=O)N1CC(N2CCN(c3cc(C#N)cc(Nc4nc(NC5CC5)c5ncc(C#N)n5n4)c3Cl)CC2)C1 [Example 518, propan-2-yl 3-[4-(2-chloro-5-cyano-3-{[7-cyano-4-(cyclopropylamino)imidazo[2,1-f][1,2,4]triazin-2-yl]amino}phenyl)piperazin-1-yl]azetidine-1-carboxylate] | 10.3
27 | CCC(CO)(CO)C(=O)N1CC(N2CCN(c3cc(C#N)cc(Nc4nc(NC5CC5)c5ncc(C#N)n5n4)c3Cl)CC2)C1 [Example 524, 2-{[3-(4-{1-[2,2-bis(hydroxymethyl)butanoyl]azetidin-3-yl}piperazin-1-yl)-2-chloro-5-cyanophenyl]amino}-4-(cyclopropylamino)imidazo[2,1-f][1,2,4]triazine-7-carbonitrile] | 7.45
